From patent publication US20060252774A1, “Regulation of type 5 adenylyl cyclase for treatment of neurodegenerative and cardiac diseases” (priority 2002, published 2006) come the findings set out here.

Where “and” joins values, the source holds several entries; their conditions need not be identical. Equal values may be shown once. Entries after “also recorded” stand apart in the source; their conditions may differ.

A word on the IC50: it is the point on the concentration scale where inhibition reaches its midpoint.

Experiment [1] relates to conscious WT and AC5KO mice. In words: Physiological studies in conscious mice: HR (ECG) and arterial pressure. In kind it is in vivo, mouse. Particulars: for change of HR: 0.75 mg/kg i.v.; for increase in HR: 1 μg/g i.v. The source says:
FIG. 19: Muscarinic regulation of cardiac function in vivo. A, Effects of atropine. […] B, Effect of ACh. […] C, Baroreflex regulation of HR.
In AC5KO and WT mice, four ECG wires (New England Electric Wire Corporation, Lisbon, N.H., USA) were placed subcutaneously, a silicone elastomer tubing (Cardiovascular Instrument Corp., Wakefield, Mass., USA) was inserted into the right external jugular vein and a 1.4 F micromanometer catheter (Millar Instruments, Inc., Houston, Tex., USA) was inserted into the lower abdominal aorta via the femoral artery as described previously with some modifications. The ECG wires, the silicone elastomer tubing and the micromanometer catheter were tunneled subcutaneously to the back, externalized, and secured in a plastic cap. On the day of the study, each mouse was placed in the mouse holder, the jugular venous catheter was accessed and connected to a microliter syringe (Hamilton Co., Reno, Nev., USA), the 1.4 F micromanometer catheter was connected to a recorder (Dash 4u; Astro-Med, Inc., West Warwick, R.I., USA) and the ECG wires were connected to an ECG amplifier (Gould Inc., Cleveland, Ohio, USA). All experiments were recorded with animals in the conscious state. After at least 6 hours recovery from the implantation of the catheter, when a stable HR was achieved, the baseline ECG and arterial pressure (AP) were recorded for 5 min. Ach (0.05 μg/g) was then administered intravenously (i.v.), and the ECG and AP recording were repeated. A recovery period of 15 min was allowed for the HR and AP to return to baseline before administering the next drug. Baseline HR slowing was examined in response to phenylephrine (0.2 μg/g i.v.).
Electrocardiogram (ECG) wires, a jugular vein catheter for drug infusion, and a femoral artery catheter for arterial pressure monitoring were implanted under anesthesia as described previously. […] Intravenous (i.v.) infusion of ISO (0.04 μg/kg/min i.v. for 5 min) was performed using an infusion pump. To examine the responses to a muscarinic agonist, acetylcholine (ACh) (25 mg/kg i.p.) was co-administered i.p. during the i.v. infusion of ISO (0.04 μg/kg/min). In addition, in conscious mice ACh (0.01 and 0.05 mg/kg), atropine (0.25, 1 and 2 mg/kg), or verapamil (0.75 mg/kg) were administered i.v., and the ECG was recorded. A recovery period of 15 min was allowed for the HR to return to baseline before administering the next drug. To examine HR responses to baroreflex hypertension, phenylephrine (0.2 mg/kg i.v.) was infused, and the ECG and arterial pressure were measured

Another experiment deals with cardiac AC. Nature of the experiment: AC assay in heart membrane preparations. It counts as biochemical, mouse. The conditions noted are these: 10 μM. Here is the method:
FIG. 17: Adrenergic, muscarinic, and Ca^2+-mediated regulation of cardiac AC activity. A, AC activity in vitro. The steady state AC activity was determined as the maximal cAMP production over 15 min. Stimulation was performed at the level of the β-AR (ISO), G-protein (GTPγS) and AC catalytic unit with forskolin (Fsk). *P<0.01, n=5. B, Effects of carbachol on AC activity. AC was preactivated by ISO. AC activity was then determined in the absence and presence of carbachol. Carbachol at 10 μmol/L produced its maximal inhibitory effect. *P<0.01, n−5. C, To investigate the inhibition of AC activity by Ca^2+, we examined cAMP production in membranes from the hearts of WT and AC5KO at increasing Ca^2+ concentrations in the presence of ISO. ISO-stimulated AC activity was inhibited more in WT than in AC5KO. […].
Hearts were dissected from the mice and membrane preparations were prepared as described previously. Protein concentration was measured by the method of Bradford using bovine serum albumin as a standard. AC activity was measured as described previously. AC activity was linear within the incubation time up to 30 min. In order to harvest hearts for tissue cAMP content measurements, mice were allowed to acclimate to the surroundings in the laboratory for an hour before sacrifice. Freshly isolated hearts were briefly immersed in liquid nitrogen. The tissue was homogenized in ice-cold 6% percholic acid, and cAMP was extracted as described before. The concentration of cAMP was determined with an RIA kit (PerkinElmer Life Sciences, Boston, Mass., USA).
Hearts were dissected from the mice, and membrane preparations were prepared as described previously. Protein concentration was measured by the Bradford method using bovine serum albumin as a standard. AC activity was measured as described previously. AC activity was linear within the incubation time up to 30 min. For the study of Ca 2+ inhibition, the membranes were treated first with EGTA to extract the endogenous Ca 2+ prior to the assay. Free Ca 2+ concentrations were obtained with the use of 200 μmol/L EGTA buffers as described previously. The experiments with Ca 2+ inhibition were conducted in the presence of 100 μmol/L isoproterenol (ISO)+100 μmol/L GTP.

Experiment [2] addresses T1, AC5 (Canis lupus familiaris, UniProt P30803). Nature of the experiment: AC catalytic activity inhibition, AC5 isoform. In kind it is biochemical. Set-up: IC50 for AC5; other: 5 mM MgCl2 with Gsalpha/GTPgammaS/forskolin (50 micro M); other: in the presence of Gsalpha/GTPgammaS/forskolin; other: 10 micro M. The conditions noted are these: for IC50: 5 mM MgCl2 with Gsalpha/GTPgammaS/forskolin (50 micro M). The text has this:
FIG. 11. […] The relative inhibitory activity versus control (% control activity) for various AC isoforms are shown. Data are means±S.D. of quadruplicate determinations.
Classic inhibitors of AC include adenosine analogs or P-site inhibitors, and MDL12330A, a non-nucleic acid inhibitor. However, not much was known about the isoform selectivity of these inhibitors. […] It was previously noted that AC2 was less sensitive to THFA than the other isoforms, giving a selectivity ratio of 1.8 when compared between AC6 and AC2.
Inventors will first determine the selectivity among the AC isoforms (FIG. 12). […] The IC50 values were calculated to be 0.32 micro M for AC5, 11.1 micro M for AC3, 65.3 micro M for AC2. The selectivity ratio of HI30435 was 207 between AC5 and AC2. […] The selectivity ratio was 18 between AC5 and AC2.

The next experiment addresses AC2 (Rattus norvegicus, UniProt P26769). Nature of the experiment: AC catalytic activity inhibition, AC2 isoform. It counts as biochemical. Particulars: in the presence of Gsalpha/GTPgammaS/forskolin. The source says: (§1) Classic inhibitors of AC include adenosine analogs or P-site inhibitors, and MDL12330A, a non-nucleic acid inhibitor.
(§2) Inventors will first determine the selectivity among the AC isoforms (FIG. 12).

The target in a further experiment is T2, AC3 (Rattus norvegicus, UniProt P21932).
T2 sequence (P21932 1-1144): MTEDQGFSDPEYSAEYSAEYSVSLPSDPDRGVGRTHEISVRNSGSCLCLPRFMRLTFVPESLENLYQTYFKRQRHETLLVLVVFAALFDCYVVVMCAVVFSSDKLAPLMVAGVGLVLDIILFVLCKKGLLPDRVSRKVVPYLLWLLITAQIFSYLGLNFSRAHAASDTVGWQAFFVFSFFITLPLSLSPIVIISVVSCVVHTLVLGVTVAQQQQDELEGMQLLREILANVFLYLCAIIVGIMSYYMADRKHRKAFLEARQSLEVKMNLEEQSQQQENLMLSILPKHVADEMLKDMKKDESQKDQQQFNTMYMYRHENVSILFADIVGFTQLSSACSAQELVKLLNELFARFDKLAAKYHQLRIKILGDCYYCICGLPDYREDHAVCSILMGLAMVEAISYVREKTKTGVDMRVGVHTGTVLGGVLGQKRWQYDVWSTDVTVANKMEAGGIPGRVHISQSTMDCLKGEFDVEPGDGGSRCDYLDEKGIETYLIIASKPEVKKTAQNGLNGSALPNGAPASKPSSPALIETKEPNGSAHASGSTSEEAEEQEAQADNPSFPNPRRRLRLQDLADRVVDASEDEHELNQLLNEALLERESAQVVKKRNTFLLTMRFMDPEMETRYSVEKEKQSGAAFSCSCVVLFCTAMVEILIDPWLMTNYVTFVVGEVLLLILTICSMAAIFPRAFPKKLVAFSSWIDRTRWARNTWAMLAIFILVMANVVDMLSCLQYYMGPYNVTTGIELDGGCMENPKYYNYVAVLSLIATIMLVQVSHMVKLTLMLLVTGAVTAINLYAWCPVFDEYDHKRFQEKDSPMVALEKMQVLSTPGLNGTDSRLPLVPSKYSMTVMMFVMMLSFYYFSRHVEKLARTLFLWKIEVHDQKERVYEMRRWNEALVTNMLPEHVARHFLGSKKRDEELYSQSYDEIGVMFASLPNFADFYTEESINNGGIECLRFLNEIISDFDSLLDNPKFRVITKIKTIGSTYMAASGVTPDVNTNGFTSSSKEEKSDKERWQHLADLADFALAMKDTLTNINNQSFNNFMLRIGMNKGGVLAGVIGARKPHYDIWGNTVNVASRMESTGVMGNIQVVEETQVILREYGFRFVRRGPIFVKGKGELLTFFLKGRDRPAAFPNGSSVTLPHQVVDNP
Nature of the experiment: AC catalytic activity inhibition, AC3 isoform. It counts as biochemical. The conditions noted are these: in the presence of Gsalpha/GTPgammaS/forskolin.
Text: as §1, §2

In experiment [3] the target is T1, AC5. In words: Adenyl cyclase stimulation by forskolin derivatives, High five cell membranes overexpressing type V. In kind it is biochemical. Details: made in house; host or cells: High Five insect cells (membranes). Particulars: forskolin derivatives. As to the method: FIG. 15: Effect of forskolin, 6[3-(dimethylamino)propionyl]-14,15-dihydroforskolin, and NKH477 on adenyl cyclase [isforms.] isoforms: Forskolin derivatives dose response effect (A-C). High five cell membranes overexpressing type II (A), type III (B), and type V (C) adenyl cyclases. Adenyl cyclase activity was measured in the presence of 5 mM of MgCl2 with various concentrations of forskolin (closed circles), 6[3-(dimethylamino)propionyl]-14,15-dihydroforskolin (D, open triangles) or NKH477 (open circles). Means±SEM from 4 independent experiments are shown. *, p<0.01 differences from the value with forskolin.

T1 sequence (P30803 whole entry, canonical isoform): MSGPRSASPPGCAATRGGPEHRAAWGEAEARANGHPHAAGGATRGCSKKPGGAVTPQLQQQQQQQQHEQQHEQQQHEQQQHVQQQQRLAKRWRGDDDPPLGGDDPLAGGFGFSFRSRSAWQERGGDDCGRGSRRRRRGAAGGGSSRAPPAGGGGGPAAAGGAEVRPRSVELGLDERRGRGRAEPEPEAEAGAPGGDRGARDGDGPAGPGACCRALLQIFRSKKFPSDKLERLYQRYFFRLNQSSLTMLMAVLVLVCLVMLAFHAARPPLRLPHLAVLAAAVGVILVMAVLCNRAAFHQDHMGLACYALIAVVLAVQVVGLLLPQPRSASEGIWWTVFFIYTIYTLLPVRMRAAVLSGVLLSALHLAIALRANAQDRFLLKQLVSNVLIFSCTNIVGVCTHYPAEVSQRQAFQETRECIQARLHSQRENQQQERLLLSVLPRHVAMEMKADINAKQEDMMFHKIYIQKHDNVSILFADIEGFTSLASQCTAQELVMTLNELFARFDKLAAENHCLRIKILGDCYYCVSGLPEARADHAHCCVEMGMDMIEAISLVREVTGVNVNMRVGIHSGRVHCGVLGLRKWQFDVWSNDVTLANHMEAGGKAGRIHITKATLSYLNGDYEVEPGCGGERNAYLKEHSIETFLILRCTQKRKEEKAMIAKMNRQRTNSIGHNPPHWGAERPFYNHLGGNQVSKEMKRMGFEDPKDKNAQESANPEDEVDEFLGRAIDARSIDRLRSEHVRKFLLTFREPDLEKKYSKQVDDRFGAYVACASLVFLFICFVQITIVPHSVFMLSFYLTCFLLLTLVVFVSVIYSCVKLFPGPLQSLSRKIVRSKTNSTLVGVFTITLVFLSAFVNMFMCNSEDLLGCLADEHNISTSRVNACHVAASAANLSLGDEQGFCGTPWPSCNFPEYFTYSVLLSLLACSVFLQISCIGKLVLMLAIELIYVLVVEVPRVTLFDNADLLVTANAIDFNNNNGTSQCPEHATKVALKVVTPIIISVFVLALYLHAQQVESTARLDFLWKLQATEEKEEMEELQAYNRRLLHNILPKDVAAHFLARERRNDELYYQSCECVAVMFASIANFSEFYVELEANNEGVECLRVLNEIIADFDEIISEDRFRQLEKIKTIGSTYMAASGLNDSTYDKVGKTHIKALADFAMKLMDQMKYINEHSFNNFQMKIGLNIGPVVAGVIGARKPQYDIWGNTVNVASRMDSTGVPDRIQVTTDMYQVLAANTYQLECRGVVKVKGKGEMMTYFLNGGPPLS

For the compound `COc1ccc(CCN(C)CCCC(C#N)(c2ccc(OC)c(OC)c2)C(C)C)cc1OC` (stereo not drawn) [verapamil], the results for the “change of HR” value in experiment [1] (conscious AC5KO) and in experiment [1] (conscious WT) were −33±10 beats/min and −36±10 beats/min, respectively.
Regarding `CC(=O)OCC[N+](C)(C)C` [ACh, acetylcholine], the “decrease of HR” value is listed as 7.5% in experiment [1] (conscious AC5KO, 0.01 μg/g i.v. (Example 2)); 1.3% in experiment [1] (conscious AC5KO, 0.01 mg/kg i.v. (Example 3)); 22% in experiment [1] (conscious WT, 0.01 μg/g i.v. (Example 2)); 15% in experiment [1] (conscious WT, 0.01 mg/kg i.v. (Example 3)).
Consider `CN1[C@@H]2CC[C@H]1C[C@@H](OC(=O)C(CO)c1ccccc1)C2` (stereo partly drawn) [atropine], for which the “increase in HR” value in experiment [1] (conscious AC5KO) is given as 19±7.5 beats/min; in experiment [1] (conscious WT) it was 102±22.2 beats/min. The “increase in HR (in words)” value in experiment [1] (conscious AC5KO, 1 mg/kg i.v. (Example 3)) is recorded as “not observed in AC5KO”.
As to `C[N+](C)(C)CCOC(N)=O` [Carbachol], the “decrease of ISO-stimulated AC activity (in words)” value in the experiment on cardiac AC (AC5KO heart membranes) is “did not inhibit; also recorded: hardly detectable”. Further, the “decrease of ISO-stimulated AC activity” value with cardiac AC (WT heart membranes, ISO 100 μM + GTP 100 μM) was 21±3.4% and 21±3%.
As to `CNC[C@H](O)c1cccc(O)c1` [Phenylephrine, phenylephrine], the “systolic arterial pressure (in words)” value in experiment [1] (WT and AC5KO, 0.2 μg/g (0.2 mg/kg) i.v.) is “increased systolic arterial pressure significantly in both WT and AC5KO; also recorded: increased systolic arterial pressure similarly in both WT and AC5KO”.
On to `Nc1ncnc2c1ncn2[C@H]1C[C@H](OP(=O)(O)O)[C@@H](CO)O1` [2′-d-3′-AMP], for which, on AC5 [2], the half-inhibitory concentration (IC50) is 0.82 µM.
On the same count and under the same terms, the result for `Nc1ncnc2c1ncn2[C@@H]1O[C@H](CO)[C@@H](OP(=O)(O)O)[C@H]1O` [3′-AMP] reads 14.6 µM.
`Nc1ncnc2c1ncn2C1CCCC1` [CPA, 9-(cyclopentyl)adenine]: the “inhibition of AC2 (in words)” value at AC2 is reported as “only to a modest degree”. Further, the “inhibition of AC5 (in words)” value on AC5 [2] (in the presence of Gsalpha/GTPgammaS/forskolin) was “potently inhibited AC5”. The “inhibition of AC3 (in words)” value at AC3 is listed as “only to a modest degree”.
For `CC[C@@]1(C)CC(=O)[C@@]2(O)[C@]3(C)[C@H](O)CCC(C)(C)[C@H]3[C@@H](O)[C@@H](OC(C)=O)[C@]2(C)O1` [14,15-Dihydroforskolin], the “AC5 selectivity of stimulation (in words)” value on AC5 [3] is given as “small enhancement in AC5 selectivity”.
